Several values for one entry are separate records, joined by “and”; a condition that tells them apart may be missing. Equal entries are not always repeated. Where two headings read alike, the source gives them in different places.
What was measured:
[1] = molecular target: T1, 348 GPCRs (Homo sapiens, UniProt Q9P296); assay: TGFα-shedding assay-based GPCR screening with chimeric Gα subunit proteins; type: cell-based; details: 10µM, Favipiravir 100μM
T1 construct: expressed in transfected cells; host or cells: HEK293A
T1 sequence (Q9P296 whole entry): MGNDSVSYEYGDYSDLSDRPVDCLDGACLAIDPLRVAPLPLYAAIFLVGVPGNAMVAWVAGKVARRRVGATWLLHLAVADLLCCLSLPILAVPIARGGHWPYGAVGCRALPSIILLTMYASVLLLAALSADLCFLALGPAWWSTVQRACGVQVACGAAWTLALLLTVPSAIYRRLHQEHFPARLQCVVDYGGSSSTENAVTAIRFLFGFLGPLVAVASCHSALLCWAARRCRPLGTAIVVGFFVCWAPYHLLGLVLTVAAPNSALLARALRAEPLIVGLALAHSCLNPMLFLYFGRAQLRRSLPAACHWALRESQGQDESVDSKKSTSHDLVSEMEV

[2] = molecular target: 348 GPCRs (Homo sapiens, UniProt P35346); assay: as above; type: cell-based; details: 10µM, Favipiravir 100μM
Chain of 348 GPCRs (Homo sapiens, UniProt P35346) (P35346 whole entry): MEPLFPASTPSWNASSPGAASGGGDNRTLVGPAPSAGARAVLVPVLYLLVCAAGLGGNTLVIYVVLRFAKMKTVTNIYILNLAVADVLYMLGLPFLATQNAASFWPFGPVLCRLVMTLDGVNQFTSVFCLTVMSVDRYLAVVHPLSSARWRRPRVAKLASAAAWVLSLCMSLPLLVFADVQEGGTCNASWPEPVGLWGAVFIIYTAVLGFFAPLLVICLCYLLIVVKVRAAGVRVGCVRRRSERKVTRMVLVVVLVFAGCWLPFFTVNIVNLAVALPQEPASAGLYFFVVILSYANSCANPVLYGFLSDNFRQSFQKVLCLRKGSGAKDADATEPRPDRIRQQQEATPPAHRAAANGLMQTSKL

[3] = molecular target: T2, 348 GPCRs (Homo sapiens, UniProt Q9Y271); assay: as above; type: cell-based
T2 construct: expressed in transfected cells; host or cells: HEK293A
T2 sequence (Q9Y271 1-337): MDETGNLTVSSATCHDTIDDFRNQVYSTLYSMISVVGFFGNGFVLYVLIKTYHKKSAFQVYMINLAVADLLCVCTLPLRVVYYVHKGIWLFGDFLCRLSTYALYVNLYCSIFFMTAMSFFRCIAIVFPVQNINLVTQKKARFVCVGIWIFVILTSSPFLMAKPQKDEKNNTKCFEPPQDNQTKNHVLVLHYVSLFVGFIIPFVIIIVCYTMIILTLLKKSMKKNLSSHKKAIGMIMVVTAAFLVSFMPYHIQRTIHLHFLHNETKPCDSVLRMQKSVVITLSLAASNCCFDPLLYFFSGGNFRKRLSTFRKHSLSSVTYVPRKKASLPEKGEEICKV

[4] = molecular target: T3, 348 GPCRs (Homo sapiens, UniProt P41586); assay: as above; type: cell-based; details: 10µM, Favipiravir 100μM
T3 construct: expressed in transfected cells; host or cells: HEK293A
T3 sequence (P41586 21-468): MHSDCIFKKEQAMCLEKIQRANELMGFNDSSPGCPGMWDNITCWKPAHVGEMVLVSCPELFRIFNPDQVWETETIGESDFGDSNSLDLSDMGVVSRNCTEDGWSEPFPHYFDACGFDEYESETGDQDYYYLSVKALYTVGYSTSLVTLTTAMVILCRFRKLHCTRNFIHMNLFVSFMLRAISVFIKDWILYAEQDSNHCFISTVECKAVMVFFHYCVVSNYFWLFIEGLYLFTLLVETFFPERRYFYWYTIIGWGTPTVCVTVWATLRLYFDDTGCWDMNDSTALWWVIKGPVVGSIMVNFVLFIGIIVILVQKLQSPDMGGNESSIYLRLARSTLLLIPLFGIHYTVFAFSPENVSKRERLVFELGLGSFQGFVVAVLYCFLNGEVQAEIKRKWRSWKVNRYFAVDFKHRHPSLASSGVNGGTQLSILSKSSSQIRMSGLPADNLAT

[5] = molecular target: T4, 348 GPCRs (Homo sapiens, UniProt Q15760); assay: as above; type: cell-based; details: 10µM, Favipiravir 100μM
T4 construct: expressed in transfected cells; host or cells: HEK293A
T4 sequence (Q15760 whole entry): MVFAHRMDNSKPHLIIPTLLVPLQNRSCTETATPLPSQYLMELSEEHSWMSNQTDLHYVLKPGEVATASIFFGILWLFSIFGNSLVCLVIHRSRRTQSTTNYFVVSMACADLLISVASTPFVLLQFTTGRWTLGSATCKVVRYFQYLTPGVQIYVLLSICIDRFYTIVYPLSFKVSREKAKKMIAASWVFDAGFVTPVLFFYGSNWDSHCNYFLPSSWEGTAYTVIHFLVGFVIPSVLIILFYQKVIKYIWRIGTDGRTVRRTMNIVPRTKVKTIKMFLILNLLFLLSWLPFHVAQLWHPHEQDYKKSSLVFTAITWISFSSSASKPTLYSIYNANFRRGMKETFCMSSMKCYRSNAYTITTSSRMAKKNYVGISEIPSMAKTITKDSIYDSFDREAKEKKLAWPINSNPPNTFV

[6] = molecular target: T5, 348 GPCRs (Homo sapiens, UniProt P41968); assay: as above; type: cell-based
T5 construct: expressed in transfected cells; host or cells: HEK293A
T5 sequence (P41968 whole entry): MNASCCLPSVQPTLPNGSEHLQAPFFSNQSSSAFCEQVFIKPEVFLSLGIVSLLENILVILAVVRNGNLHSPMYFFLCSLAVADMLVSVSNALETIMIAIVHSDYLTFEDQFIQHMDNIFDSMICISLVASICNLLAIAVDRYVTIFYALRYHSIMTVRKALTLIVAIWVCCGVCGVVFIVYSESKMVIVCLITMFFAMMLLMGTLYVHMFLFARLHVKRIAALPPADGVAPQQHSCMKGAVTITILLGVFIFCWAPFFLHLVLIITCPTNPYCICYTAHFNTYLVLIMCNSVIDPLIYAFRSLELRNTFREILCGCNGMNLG

[7] = molecular target: T6, 348 GPCRs (Homo sapiens, UniProt O00590); assay: as above; type: cell-based; details: 10µM, Favipiravir 100μM
T6 construct: expressed in transfected cells; host or cells: HEK293A
T6 sequence (O00590 1-384): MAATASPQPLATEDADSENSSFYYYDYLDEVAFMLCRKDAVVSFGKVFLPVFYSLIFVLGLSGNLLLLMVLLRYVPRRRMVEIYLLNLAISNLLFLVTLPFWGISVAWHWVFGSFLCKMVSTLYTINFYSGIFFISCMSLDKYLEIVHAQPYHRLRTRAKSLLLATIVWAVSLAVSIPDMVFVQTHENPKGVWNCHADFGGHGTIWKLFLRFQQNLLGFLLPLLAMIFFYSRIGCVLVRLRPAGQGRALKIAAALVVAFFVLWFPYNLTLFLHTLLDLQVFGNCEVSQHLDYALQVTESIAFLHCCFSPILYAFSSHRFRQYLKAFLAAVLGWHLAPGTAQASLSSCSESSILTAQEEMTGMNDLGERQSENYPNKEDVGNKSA

[8] = molecular target: T7, 348 GPCRs (Homo sapiens, UniProt Q13258); assay: as above; type: cell-based; details: 10µM, Favipiravir 100μM
T7 sequence (Q13258 1-359): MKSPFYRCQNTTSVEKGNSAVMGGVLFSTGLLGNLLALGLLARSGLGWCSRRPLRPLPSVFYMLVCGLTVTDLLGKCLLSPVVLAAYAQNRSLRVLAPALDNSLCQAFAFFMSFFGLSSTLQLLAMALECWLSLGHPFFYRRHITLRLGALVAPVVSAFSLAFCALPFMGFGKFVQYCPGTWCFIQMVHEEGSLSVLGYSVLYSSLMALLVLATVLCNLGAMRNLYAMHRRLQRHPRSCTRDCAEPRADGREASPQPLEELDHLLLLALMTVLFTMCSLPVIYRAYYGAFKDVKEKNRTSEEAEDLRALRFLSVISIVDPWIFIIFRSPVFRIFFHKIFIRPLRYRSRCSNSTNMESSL

[9] = molecular target: T8, urotensin-II receptor (UTS2R) (Homo sapiens, UniProt Q9UKP6); assay: TGFα-shedding assay, concentration-response on UTS2R (endogenous G protein), with or without urantide; type: cell-based
T8 construct: expressed in transfected cells; host or cells: HEK293A
T8 sequence (Q9UKP6 1-389): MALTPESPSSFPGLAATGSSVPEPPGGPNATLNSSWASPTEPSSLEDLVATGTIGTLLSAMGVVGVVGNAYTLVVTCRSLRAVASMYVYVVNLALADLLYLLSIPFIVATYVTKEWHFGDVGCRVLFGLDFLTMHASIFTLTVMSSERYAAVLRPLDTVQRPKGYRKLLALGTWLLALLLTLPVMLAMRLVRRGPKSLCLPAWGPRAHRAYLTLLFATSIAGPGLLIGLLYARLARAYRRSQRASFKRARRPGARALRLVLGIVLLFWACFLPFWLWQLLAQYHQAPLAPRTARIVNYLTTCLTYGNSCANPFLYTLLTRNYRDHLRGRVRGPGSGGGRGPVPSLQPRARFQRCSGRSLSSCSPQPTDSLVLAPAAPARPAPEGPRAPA

[10] = system: UTS2R A249G; assay: TGFα-shedding assay on UTS2R SNV mutant A249G; type: cell-based, human; details: cutoff value set to −1, single replicates
[11] = system: hiPS-CMs; assay: Perforated patch-clamp, spontaneous action potentials (APD90) of hiPS-CMs; type: cell-based, human; details: 10 µM remdesivir, 72 h
[12] = system: UTS2R T304A; assay: TGFα-shedding assay on UTS2R mutant T304A; type: cell-based, human; details: cutoff value set to −1, single replicates
[13] = read-out: % GPCR activation compared to TPA, GPR77 (complement component 5a receptor 2 (C5AR2))
[14] = read-out: % GPCR activation compared to TPA, SSTR5 (somatostatin receptor 5)
[15] = read-out: % GPCR activation compared to TPA, GPCR CysLT1 (cysteinyl leukotriene receptor 1)
[16] = read-out: % GPCR activation compared to TPA, ADCYAP1 (ADCYAP receptor type I)
[17] = read-out: % GPCR activation compared to TPA, GPR19 (G Protein-Coupled Receptor 19)
[18] = read-out: % GPCR activation compared to TPA, GPCR MC3R (melanocortin 3 receptor)
[19] = read-out: % GPCR activation compared to TPA, CCBP2 (chemokine binding protein 2)
[20] = read-out: % GPCR activation compared to TPA, DP (prostaglandin D2 receptor)
[21] = GPR77 (complement component 5a receptor 2 (C5AR2)), read-out: % GPCR activation compared to TPA
[22] = SSTR5 (somatostatin receptor 5), read-out: % GPCR activation compared to TPA
[23] = GPCR CysLT1 (cysteinyl leukotriene receptor 1), read-out: % GPCR activation compared to TPA
[24] = ADCYAP1 (ADCYAP receptor type I), read-out: % GPCR activation compared to TPA
[25] = GPR19 (G Protein-Coupled Receptor 19), read-out: % GPCR activation compared to TPA
[26] = GPCR MC3R (melanocortin 3 receptor), read-out: % GPCR activation compared to TPA
[27] = CCBP2 (chemokine binding protein 2), read-out: % GPCR activation compared to TPA
[28] = DP (prostaglandin D2 receptor), read-out: % GPCR activation compared to TPA

| Compound | activation at 100 µM [1, 13] | activation at 10 µM [2, 14] | activation at 10 µM [3, 15] | activation at 100 µM [4, 16] | activation at 100 µM [5, 17] | activation at 10 µM [6, 18] | activation at 100 µM [7, 19] | activation at 100 µM [8, 20] | activation at 100 µM [1, 21] | activation at 10 µM [2, 22] | activation at 10 µM [3, 23] | activation at 100 µM [4, 24] | activation at 100 µM [5, 25] | activation at 10 µM [6, 26] | activation at 100 µM [7, 27] | activation at 100 µM [8, 28] | also measured |
| --- | --- | --- | --- | --- | --- | --- | --- | --- | --- | --- | --- | --- | --- | --- | --- | --- | --- |
| CC(C)OC(=O)[C@H](C)N[P@](=O)(OC[C@H]1O[C@@H](n2ccc(=O)[nH]c2=O)[C@](C)(F)[C@@H]1O)Oc1ccccc1 [sofosbuvir] | -3.7% | -0.552% | -1.58% | -0.225% | -1.2% | -3.13% | -0.681% | -0.617% |  |  |  |  |  |  |  |  | UTS2R activation ([9]; TGFα-shedding, screening 10 μM and response curves (Fig. 1a, Supplementary Fig. 1a)): did not activate UTS2R |
| CC(C)C(=O)OC[C@H]1O[C@@H](n2ccc(NO)nc2=O)[C@H](O)[C@@H]1O [molnupiravir] |  |  |  |  |  |  |  |  | -1.07% | -2.28% | -1.72% | -0.597% | -0.76% | -4.7% | -0.55% | -0.606% |  |
| NC(=O)c1nc(F)cnc1O [favipiravir, 6-fluoro-3-hydroxy-2-pyrazinecarboxamide] |  |  |  |  |  |  |  |  | 6.15% | 2.28% |  | -0.29% | -0.654% |  | -6.14% | -1.59% | activation at 100 µM ([3]; GPCR CysLT1 (cysteinyl leukotriene receptor 1), 100μM, read-out: % GPCR activation compared to TPA): -0.478%; activation at 100 µM ([6]; GPCR MC3R (melanocortin 3 receptor), 100μM, read-out: % GPCR activation compared to TPA): 0.3% |
| N#C[C@@]1(c2ccc3c(N)ncnn23)O[C@H](CO)[C@@H](O)[C@H]1O [GS441524] |  |  |  |  |  |  |  |  | 2.65% | -0.162% | -1.14% | 3.21% | -0.932% | 2.26% | -3.26% | -1.84% |  |
| CCC(CC)COC(=O)[C@H](C)N[P@](=O)(OC[C@H]1O[C@@](C#N)(c2ccc3c(N)ncnn23)[C@H](O)[C@@H]1O)Oc1ccccc1 [remdesivir] | 4.77% | -0.348% | 0.442% | 2.11% | -1.37% | 1.7% | -7.69% | 6.06% |  |  |  |  |  |  |  |  | Emax [9]: 47 ± 1.4%; EC50 ([9]; WT EC50 (Remdesivir), wild-type UTS2R control run alongside the mutant): 17.4 µM and 15.9 µM and 10.7 µM and 14 µM and 10.2 µM and 10.8 µM and 12.4 µM (2×) and 18 µM and 11.6 µM and 18.5 µM; EC50 ([9]; pEC50 (TGFα-shedding response for UTS2R), WT UTS2R, without chimeric Gα protein, HEK293A cells): 12.9 µM; activation at 10 µM ([9]; read-out: UTS2R activation (%AP-TGFα release), compound concentration Log10 (M) -5, without urantide): 15%; activation at 3.3 µM ([9]; read-out: UTS2R activation (%AP-TGFα release), compound concentration Log10 (M) -5.48149, without urantide): 7.9%; ⊿pEC50 compared to WT UTS2R [10]: > 0.3 and 0.2782 and 0.2736 and 0.3671 and 0.2913; APD90 (action potential duration at 90% repolarization) [11]: significantly prolonged; ⊿pEC50 compared to WT UTS2R [12]: -1 |
